Test results published in patent US8507464B2, “Phosphoramidate alkylator prodrugs” (Threshold Pharmaceuticals, Inc., priority 2005, dated 2013).
Values after ≈ are worked out from the molar mass of the structure shown. Like-named read-outs stand apart in the source and are kept apart here.

Tests used:
PC3 cells = experiment: Cell cycle distribution (flow cytometry); format: cell-based, human
Protocol: (§1) Cells ([…], PC3 and HT29) were seeded at a density of 1.0×10^6 cells/3 ml medium per 60 mm dish. After 24 h attachment, cells were exposed to Compound 25 at the indicated concentrations for 2 h under either normoxia (air) or anoxia (nitrogen). Cells were washed twice, and incubated for an additional 22 h in fresh medium. Cells were trypsinized, centrifuged, and fixed in 75% ethanol at least for 24 h at −20° C. Cell cycle distribution was determined using Guava Cell Cycle reagent (Guava, Hayward, Calif.) by flow cytometry (Guava, Hayward, Calif.).

HT29 cells = experiment: Cell cycle distribution (flow cytometry); format: cell-based, human
Protocol: as §1

CYP3A4 = CYP3A4 (Homo sapiens, UniProt P08684); experiment: in vitro
Protocol: (§2) A control reaction with no inhibitor was also prepared. After a suitable incubation at 37° C., the reactions were terminated by the addition of […] of 10% formic acid in water ([…] of acetonitrile for 2C19). […] Each assay was performed in duplicate.

CYP1A2 = CYP1A2 (Homo sapiens, UniProt P05177); experiment: in vitro; conditions: pH 7.4, probe phenacetin
Protocol: as §2

CYP2D6 = CYP2D6 (Homo sapiens, UniProt P10635); experiment: in vitro; conditions: pH 7.4, probe dextromethorphan
Protocol: as §2

[1] = target: CYP2C19 (printed CYPC219) (Homo sapiens, UniProt P33261); experiment: Cytochrome P450 inhibition; conditions: pH 7.4, probe (S)-mephenyloin
Protocol: as §2

CYP2C9 = CYP2C9 (Homo sapiens, UniProt P11712); experiment: Cytochrome P450 inhibition; conditions: pH 7.4
Protocol: as §2

H460 xenograft = H460 xenograft in nude mice, ip bolus or ip infusion with Cisplatin (Example 54); format: in vivo, mouse; conditions: alone or in combination with CDDP
Protocol: Example 54 describes efficacy of Compound 25 via an ip bolus injection or ip infusion alone or in combination with Cisplatin in the H460 xenograft mouse model. Female Nu-Foxn1^nu homozygous nu/nu mice (purchased from Charles River, Cambridge, Mass.), 6 weeks of age, were allowed to acclimatize for at least three days, and handled under pathogen-free conditions. Human H460 cells were obtained from the American Type Culture Collection. The cell lines were cultured and harvested as described in Example 47 and inoculated at 3×10^6 cells/animal in the peritoneal subcutaneous space. When the tumors grew to an average volume of 100 mm^3 (day 8), each group of mice (ten per group) was administered, for three weeks, as tabulated in the table below: Compound 25 (formulated as a 15 mg/ml saline solution, administration route—i.p., administrated 2 h before CDDP on the days the combination therapy is scheduled) and CDDP in saline, IV.
The body weight and tumor volume was determined as described in Example 47.

[2] = In vivo plasma or tumor pharmacokinetics of Compound 25 (Table 4); parameters: species or system CD-1 mice (nude mice where noted)
[3] = logP (partitioning between octanol and water); format: physicochemical; conditions: read-out: logP
Description: As used herein “LogP” means a measure of lipophilicity of a substance determined based on the partitioning of the substance betwen octanol and water.

[4] = Solubility in saline at room temperature; format: physicochemical; conditions: saline or isotonic
[5] = 50 mg/kg i.v., 30% PEG/70% Saline, CD-1 mice
[6] = CD-1, mouse, plasma, ip, 25 mg/kg, 25 mg/kg i.p., 10% PEG, CD-1 mice
[7] = CD-1, mouse, plasma, ip, 50 mg/kg, 50 mg/kg i.p., Saline, CD-1 mice
[8] = CD-1, mouse, plasma, iv, 50 mg/kg, 50 mg/kg i.v., 30% PEG/70% Saline, CD-1 mice
[9] = CD-1, mouse, plasma, po, 50 mg/kg, 50 mg/kg p.o., Saline, CD-1 mice
[10] = CD-1, mouse, plasma, po, 100 mg/kg, 100 mg/kg p.o., Saline, CD-1 mice
[11] = nude, mouse, plasma, ip, 150 mg/kg, 150 mg/kg i.p., Saline, nude mice with H460 tumor
[12] = nude, mouse, tumor, ip, 150 mg/kg, 150 mg/kg i.p., Saline, nude mice with H460 tumor, Tumor PK

Sequence of CYP3A4 (P08684 whole entry): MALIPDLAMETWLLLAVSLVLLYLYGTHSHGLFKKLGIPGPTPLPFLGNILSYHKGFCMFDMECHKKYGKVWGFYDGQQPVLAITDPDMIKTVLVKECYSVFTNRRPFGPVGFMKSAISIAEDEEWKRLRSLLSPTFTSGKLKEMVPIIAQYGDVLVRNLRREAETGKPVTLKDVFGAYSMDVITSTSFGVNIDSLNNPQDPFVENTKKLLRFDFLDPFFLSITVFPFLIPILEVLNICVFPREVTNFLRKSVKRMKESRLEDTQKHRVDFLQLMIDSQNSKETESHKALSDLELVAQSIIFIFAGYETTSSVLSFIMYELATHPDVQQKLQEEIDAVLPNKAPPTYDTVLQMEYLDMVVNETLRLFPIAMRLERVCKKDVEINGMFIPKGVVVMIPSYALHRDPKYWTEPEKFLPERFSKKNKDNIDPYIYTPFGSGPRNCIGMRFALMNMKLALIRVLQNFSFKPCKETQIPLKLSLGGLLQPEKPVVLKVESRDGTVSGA
Sequence of CYP1A2 (P05177 whole entry, species assumed): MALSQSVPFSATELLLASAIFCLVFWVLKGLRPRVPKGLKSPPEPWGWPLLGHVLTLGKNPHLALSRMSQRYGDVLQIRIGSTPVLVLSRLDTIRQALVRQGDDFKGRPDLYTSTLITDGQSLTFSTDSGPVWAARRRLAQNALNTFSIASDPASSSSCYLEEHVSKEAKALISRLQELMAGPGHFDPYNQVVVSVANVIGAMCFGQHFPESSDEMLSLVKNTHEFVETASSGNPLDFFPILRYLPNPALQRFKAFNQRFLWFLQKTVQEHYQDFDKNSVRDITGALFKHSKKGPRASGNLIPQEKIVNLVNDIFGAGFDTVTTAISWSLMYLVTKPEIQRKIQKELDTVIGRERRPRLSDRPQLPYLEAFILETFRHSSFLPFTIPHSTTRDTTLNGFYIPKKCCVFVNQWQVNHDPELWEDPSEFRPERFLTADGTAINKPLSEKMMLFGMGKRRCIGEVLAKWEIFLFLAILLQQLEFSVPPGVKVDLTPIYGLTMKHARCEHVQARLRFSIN
Sequence of CYP2C19 (printed CYPC219) (P33261 whole entry): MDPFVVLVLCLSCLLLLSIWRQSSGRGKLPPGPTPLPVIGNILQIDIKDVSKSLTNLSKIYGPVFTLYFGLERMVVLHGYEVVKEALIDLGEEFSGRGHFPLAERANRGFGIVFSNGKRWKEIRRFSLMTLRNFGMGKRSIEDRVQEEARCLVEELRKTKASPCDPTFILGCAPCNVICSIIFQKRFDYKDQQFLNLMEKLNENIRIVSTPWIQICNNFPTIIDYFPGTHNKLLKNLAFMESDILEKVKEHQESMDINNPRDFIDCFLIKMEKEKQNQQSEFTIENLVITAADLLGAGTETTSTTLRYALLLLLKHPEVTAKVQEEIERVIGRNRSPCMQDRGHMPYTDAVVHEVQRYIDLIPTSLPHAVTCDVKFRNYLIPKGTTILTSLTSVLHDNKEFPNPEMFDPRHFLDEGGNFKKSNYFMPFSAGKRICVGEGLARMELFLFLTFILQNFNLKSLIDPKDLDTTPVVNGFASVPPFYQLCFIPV
Sequence of CYP2D6 (P10635 whole entry): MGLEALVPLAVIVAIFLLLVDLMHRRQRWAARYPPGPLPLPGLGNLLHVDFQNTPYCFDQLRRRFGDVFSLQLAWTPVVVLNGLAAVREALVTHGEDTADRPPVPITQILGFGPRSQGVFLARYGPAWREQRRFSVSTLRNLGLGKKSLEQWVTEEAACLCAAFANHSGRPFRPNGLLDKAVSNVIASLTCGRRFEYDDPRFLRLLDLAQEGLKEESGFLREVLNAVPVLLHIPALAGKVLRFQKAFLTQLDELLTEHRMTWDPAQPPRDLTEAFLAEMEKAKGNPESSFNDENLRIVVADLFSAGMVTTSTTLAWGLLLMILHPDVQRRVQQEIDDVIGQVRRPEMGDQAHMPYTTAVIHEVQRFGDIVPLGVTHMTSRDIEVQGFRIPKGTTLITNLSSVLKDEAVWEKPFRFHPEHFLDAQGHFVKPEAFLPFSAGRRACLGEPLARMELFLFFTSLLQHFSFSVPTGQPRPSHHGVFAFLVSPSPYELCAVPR
Sequence of CYP2C9 (P11712 whole entry): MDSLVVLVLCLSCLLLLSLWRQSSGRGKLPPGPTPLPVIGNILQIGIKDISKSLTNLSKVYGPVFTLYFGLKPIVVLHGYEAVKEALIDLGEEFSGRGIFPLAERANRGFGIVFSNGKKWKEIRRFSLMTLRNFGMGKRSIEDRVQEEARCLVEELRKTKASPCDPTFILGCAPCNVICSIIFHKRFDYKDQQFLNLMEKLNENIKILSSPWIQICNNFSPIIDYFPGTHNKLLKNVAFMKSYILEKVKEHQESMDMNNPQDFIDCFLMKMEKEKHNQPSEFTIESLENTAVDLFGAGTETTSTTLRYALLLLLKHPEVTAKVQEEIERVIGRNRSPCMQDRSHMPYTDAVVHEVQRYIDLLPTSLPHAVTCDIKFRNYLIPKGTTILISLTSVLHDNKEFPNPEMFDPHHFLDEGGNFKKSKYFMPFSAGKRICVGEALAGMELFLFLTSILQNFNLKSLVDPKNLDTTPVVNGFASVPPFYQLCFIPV

## Cn1c(COP(=O)(NCCBr)NCCBr)cnc1[N+](=O)[O-] [Compound 25]
PC3 cells; 0.0005 μM, Air
  Cell cycle G0/G1: 55
  Cell cycle G2/M: 32
  Cell cycle S: 12
PC3 cells; 0.0005 μM, Nitrogen
  Cell cycle G0/G1: 59
  Cell cycle G2/M: 31
  Cell cycle S: 10
PC3 cells; 0.005 μM, Air
  Cell cycle G0/G1: 52
  Cell cycle G2/M: 34
  Cell cycle S: 13
PC3 cells; 0.005 μM, Nitrogen
  Cell cycle G0/G1: 56
  Cell cycle G2/M: 32
  Cell cycle S: 11
PC3 cells; 0.05 μM, Air
  Cell cycle G0/G1: 55
  Cell cycle G2/M: 33
  Cell cycle S: 12
PC3 cells; 0.05 μM, Nitrogen
  Cell cycle G0/G1: 43
  Cell cycle G2/M: 44
  Cell cycle S: 12
PC3 cells; 0.5 μM, Air
  Cell cycle G0/G1: 55
  Cell cycle G2/M: 32
  Cell cycle S: 13
PC3 cells; 0.5 μM, Nitrogen
  Cell cycle G0/G1: 21
  Cell cycle G2/M: 46
  Cell cycle S: 33
PC3 cells; 5 μM, Air
  Cell cycle G0/G1: 55
  Cell cycle G2/M: 32
  Cell cycle S: 12
PC3 cells; 5 μM, Nitrogen
  Cell cycle G0/G1: 35
  Cell cycle G2/M: 26
  Cell cycle S: 38
HT29 cells; 0.005 μM, Air
  Cell cycle G0/G1: 52
  Cell cycle G2/M: 35
  Cell cycle S: 12
HT29 cells; 0.005 μM, Nitrogen
  Cell cycle G0/G1: 46
  Cell cycle G2/M: 40
  Cell cycle S: 14
HT29 cells; 0.05 μM, Air
  Cell cycle G0/G1: 50
  Cell cycle G2/M: 35
  Cell cycle S: 15
HT29 cells; 0.05 μM, Nitrogen
  Cell cycle G0/G1: 37
  Cell cycle G2/M: 52
  Cell cycle S: 11
HT29 cells; 0.5 μM, Air
  Cell cycle G0/G1: 48
  Cell cycle G2/M: 37
  Cell cycle S: 14
HT29 cells; 0.5 μM, Nitrogen
  Cell cycle G0/G1: 8
  Cell cycle G2/M: 84
  Cell cycle S: 8
HT29 cells; 5 μM, Air
  Cell cycle G0/G1: 47
  Cell cycle G2/M: 39
  Cell cycle S: 13
HT29 cells; 5 μM, Nitrogen
  Cell cycle G0/G1: 14
  Cell cycle G2/M: 36
  Cell cycle S: 50
CYP3A4; pH 7.4, IC50 3A4 Midazolam, probe substrate midazolam
  IC50: > 50 µM
CYP3A4; pH 7.4, IC50 3A4 Nifedipine, probe substrate nifedipine
  IC50: > 50 µM
CYP3A4; pH 7.4, IC50 3A4 Testosterone, probe substrate testosterone
  IC50: > 50 µM
CYP1A2
  IC50: > 50 µM
CYP2D6
  IC50: > 50 µM
[1]
  IC50: > 50 µM
CYP2C9
  IC50: ~10 µM
H460 xenograft
  efficacy of continuous application: efficacious
[2]; [5]
  AUC: 177 µg·h/mL
  half-life: 10.1 min
[2]; [6]
  Cmax: 6330 ng/mL
  Tmax: 45 min
[2]; CD-1, mouse, plasma, ip, 25 mg/kg, 25 mg/kg i.p., 10% PEG, CD-1 mice, read-out: AUC
  AUC: 247 µg·h/mL
[2]; CD-1, mouse, plasma, ip, 25 mg/kg, 25 mg/kg i.p., 10% PEG, CD-1 mice, read-out: Half-life
  half-life: 4.43 min
[2]; CD-1, mouse, plasma, ip, 50 mg/kg, 50 mg/kg i.p., 30% PEG/70% Saline, CD-1 mice, read-out: AUC
  AUC: 438 µg·h/mL
[2]; CD-1, mouse, plasma, ip, 50 mg/kg, 50 mg/kg i.p., 30% PEG/70% Saline, CD-1 mice, read-out: Half-life
  half-life: 11 min
[2]; [7]
  Cmax: 38500 ng/mL
  Tmax: 5 min
[2]; CD-1, mouse, plasma, ip, 50 mg/kg, 50 mg/kg i.p., Saline, CD-1 mice, read-out: AUC
  AUC: 635 µg·h/mL
[2]; CD-1, mouse, plasma, ip, 50 mg/kg, 50 mg/kg i.p., Saline, CD-1 mice, read-out: Half-life
  half-life: 7.91 min
[2]; [8]
  Cmax: 27500 ng/mL
  Tmax: 2 min
[2]; CD-1, mouse, plasma, iv, 50 mg/kg, 50 mg/kg i.v., 30% PEG/70% Saline, CD-1 mice, read-out: AUC
  AUC: 325 µg·h/mL
[2]; CD-1, mouse, plasma, iv, 50 mg/kg, 50 mg/kg i.v., 30% PEG/70% Saline, CD-1 mice, read-out: Half-life
  half-life: 6.7 min
[2]; [9]
  Cmax: 930 ng/mL
  Tmax: 15 min
[2]; CD-1, mouse, plasma, po, 50 mg/kg, 50 mg/kg p.o., Saline, CD-1 mice, read-out: AUC
  AUC: 40.4 µg·h/mL
[2]; CD-1, mouse, plasma, po, 50 mg/kg, 50 mg/kg p.o., Saline, CD-1 mice, read-out: Half-life
  half-life: 25.7 min
[2]; [10]
  Cmax: 15800 ng/mL
  Tmax: 15 min
[2]; CD-1, mouse, plasma, po, 100 mg/kg, 100 mg/kg p.o., Saline, CD-1 mice, read-out: AUC
  AUC: 784 µg·h/mL
[2]; CD-1, mouse, plasma, po, 100 mg/kg, 100 mg/kg p.o., Saline, CD-1 mice, read-out: Half-life
  half-life: 95.2 min
[2]; mouse, plasma, po, 50 mg/kg p.o., Saline, CD-1 mice, read-out: F (Bioavailability)
  bioavailability: 13.6%
[2]; [11]
  Cmax: 90100 ng/mL
  Tmax: 5 min
[2]; nude, mouse, plasma, ip, 150 mg/kg, 150 mg/kg i.p., Saline, nude mice with H460 tumor, plasma, read-out: AUC
  AUC: 1240 µg·h/mL
[2]; nude, mouse, plasma, ip, 150 mg/kg, 150 mg/kg i.p., Saline, nude mice with H460 tumor, plasma, read-out: Half-life
  half-life: 58.7 min
[2]; [12]
  Cmax: 3380 ng/mL
  Tmax: 15 min
[2]; nude, mouse, tumor, ip, 150 mg/kg, 150 mg/kg i.p., Saline, nude mice with H460 tumor, Tumor PK, read-out: AUC
  AUC: 307 µg·h/mL
[3]
  logP: < 0
[4]
  solubility: 15 mg/mL (≈ 33.4 mM)
